Laboratory results from patent US7378438B2, “Beta-agonist compounds comprising nitric oxide donor groups and reactive oxygen species scavenger groups and their use in the treatment of respiratory disorders” (Yissum Research Development Company of the Hebrew …, priority 2002, dated 2008).

Tests used:
tracheal rings = assay: Relaxation studies on pre-contracted tracheal rings; assay type: cell-based, guinea pigs; conditions: FIG. 1; tracheal rings contracted with methacholine, histamine or leukotriene D4; compared with salbutamol and compound 2a
Method: The assays as described here are also described in, for example, U.S. Pat. No. 4,992,474 and Jansen et al.(1992) J. Pharmacol. Exptl. TherapeuticsI 261(1):154-160.
(§1) Male Hartley guinea pigs (500-600 g) were anesthetized by intraperitoneal injection of ketamine and xylazine (50 and 10 mg/kg, respectively). The heart and lungs were excised en bloc and tracheas were removed and placed in Krebs-Henseleit buffer composed of (mM): NaCl 118, KCl 5.4, NaH2PO4 1.01, NaHCO3 25, MgSO4 0.69, […], glucose 11.1, pH 7.4. Tracheas were then dissected free from surrounding fat and connective tissue and cut into 1-2-mm thick rings. The tracheal rings were then placed in buffer and continuously gassed with 95% O2 and 5% CO2.
Tracheal rings were suspended on stainless steel hooks in 10 ml of oxygenated (95% O2, 5% CO2) Krebs-Henseleit buffer at 37° C. and connected to transducer (Experimetria Model) for recording changes in isometric force. The tracheal rings were equilibrated for 60 min under a load of 1 g and then primed twice by exposure to 100 μM methacholine. Tissues were contacted with methacholine, histamine, or leukotriene D4 at concentrations determined to approximately generate 50% of maximal tone, after which cumulative relaxation-response curves were constructed. […]

[1] = tested on: NO-guanylyl cyclase pathway; assay: Cyclic nucleotide (cGMP) assay in tracheal rings; assay type: cell-based, guinea pigs; conditions: FIG. 2
Method: as §1
Tracheal rings in Krebs-Heneseleit solution were exposed to a 5-100 μM of the test compound for 30-90 seconds. Reaction was terminated by the addition of ice-cold 10% trichloroacetic acid and rapidly frozen in ethanol-saturated dry ice. In the methylene blue experiment, rings were pre-exposed methylene blue, a guanylyl cyclase inhibitor, for 30 min. Tissues were then individually pulverized with a glass homogenizer and centrifuged at 8000×g for 5 min. The clear supernatant was extracted with water-saturated ether and assayed for cGMP using commercially available radioimmunoassay kits as described by the manufacturer (Amersham Biosciences, Piscataway, N.J.).

Substance: 5-(2-tert-Butylamino-1-S-nitroso-ethyl)-1,1,3,3-tetramethyl-isoindolin-2-yloxyl [compound 2]
- relaxation response (relax. %) versus log of concentration (tracheal rings): more effective relaxant compound than either salbutamol or the non-nitrosolated precursor of compound 2, compound 2a
- cGMP response of tracheal rings ([1]; 5-100 μM test compound for 30-90 seconds, radioimmunoassay, compared with control and salbutamol): elevates the production of cGMP
- cGMP response of tracheal rings in the presence of methylene blue (MB) ([1]; rings pre-exposed to methylene blue, a guanylyl cyclase inhibitor, for 30 min): reduces the efficacy of compound 2
